Source: ChEMBL document CHEMBL3997819, “Synthesis and biological evaluation of heterocyclic analogues of pregnenolone as novel anti-osteoporotic agents” (2017)
Active and inactive are the calls of the source. The calls are words filed in the database; no cut-off is given here.

Tests used:
[1] = system: Calvarial osteoblast; assay: Antiosteoporotic activity in mouse calvarial osteoblasts assessed as upregulation of OCN mRNA levels at 1 pM measured at 24 hrs by real-time quantitative PCR method relative to control; format: functional
[2] = system: Calvarial osteoblast; assay: Antiosteoporotic activity in mouse calvarial osteoblasts assessed as enhancement in ALP activity at 1 nM to 1 uM after 48 hrs by PNPP substrate-based spectrophotometric method relative to control; format: functional, cell-based
[3] = system: Calvarial osteoblast; assay: Antiosteoporotic activity in mouse calvarial osteoblasts assessed as upregulation of Runx-2 mRNA levels at 1 pM measured at 24 hrs by real-time quantitative PCR method relative to control; format: functional
[4] = system: Calvarial osteoblast; assay: Antiosteoporotic activity in mouse calvarial osteoblasts assessed as enhancement in ALP activity at 1 pM after 48 hrs by PNPP substrate-based spectrophotometric method relative to control; format: functional
[5] = system: Calvarial osteoblast; assay: Antiosteoporotic activity in mouse calvarial osteoblasts assessed as increase in mineral nodule formation at 1 to 100 pM after 21 days by alizarin red-S dye-based optical densitometry relative to control; format: functional, cell-based
[6] = system: Calvarial osteoblast; assay: Antiosteoporotic activity in mouse calvarial osteoblasts assessed as enhancement in ALP activity at 100 pM after 48 hrs by PNPP substrate-based spectrophotometric method relative to control; format: functional
[7] = system: Calvarial osteoblast; assay: Antiosteoporotic activity in mouse calvarial osteoblasts assessed as upregulation of BMP-2 mRNA levels at 1 pM measured at 24 hrs by real-time quantitative PCR method relative to control; format: functional
[8] = system: Calvarial osteoblast; assay: Antiosteoporotic activity in mouse calvarial osteoblasts assessed as enhancement in ALP activity at 1 pM to 1 uM after 48 hrs by PNPP substrate-based spectrophotometric method relative to control; format: functional, cell-based

C[C@]12CC[C@H]3[C@@H](CC=C4C[C@@H](O)CC[C@@]43C)[C@@H]1CC[C@@H]2c1ccc2ccccc2n1
fold change (FC) [1]: 3
Activity [2]: Active
fold change (FC) [3]: 1.5
Activity [4]: 100%
Activity [5]: Active
Activity [6]: 85%
fold change (FC) [7]: 2

C/C(=N\O)[C@H]1CC[C@H]2[C@@H]3CC=C4C[C@@H](O)CC[C@]4(C)[C@H]3CC[C@]12C
Activity [8]: Active

C[C@]12CC[C@H]3[C@@H](CC=C4C[C@@H](O)CC[C@@]43C)[C@@H]1CC[C@@H]2c1ccc2cc(Br)cc(Br)c2n1
Activity [8]: Active

CC(=O)O[C@H]1CC[C@@]2(C)C(=CC[C@H]3[C@@H]4CC[C@H](C(C)=O)[C@@]4(C)CC[C@@H]32)C1
Activity [8]: Active
